The METLIN SMRT retention time set (Domingo-Almenara et al. 2019)

Assay: gradient 5% acetonitrile 3 min, to 50% in 2 min, to 85% in 15 min, held 3 min, 100 µL/min
Settings: column: Zorbax Extend-C18 2.1 x 50 mm; eluents: water / acetonitrile, 0.1% formic acid
Summary of the method: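 Data were gathered over 3 months by HPLC coupled to a quadrupole time-of-flight mass spectrometer, operated in positive and negative ionization mode. Mixtures of ~100 pure standards ran on a Zorbax Extend-C18 column (2.1 × 50 mm, 1.8 μm) at 100 μL/min, with water and acetonitrile each containing 0.1% formic acid and dead and dwell volumes of 40 μL and 900 μL. Retention time was read from adduct peaks picked by computer and checked manually.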

RP-LC retention time [s] | Compound
774 | O=C(c1ccsc1)N1CCN(c2[nH]ncc2-c2ccccc2)CC1
766 | CC(=O)Nc1ccc(-n2c(-c3ccc(Cl)cc3)cn3c4c(=O)n(C)c(=O)n(C)c4nc23)cc1
1020 | CC(C)Cn1cc(S(=O)(=O)NCc2ccccc2Cl)c2cccnc21
626 | Cc1ccc(C(CNC(=O)c2cc(=O)c3ccccc3o2)N(C)C)cc1 (stereo not drawn)
1000 | CCSc1nc(-c2ccccc2)c(NC(=O)c2ccc(S(=O)(=O)N(C)C)cc2)s1
618 | Cc1ccc(NC(=O)c2ccc(CN3CCN(C)CC3)cc2)cc1Nc1nc(-c2cccnc2)cs1
773 | O=C(c1ccccc1Br)N1CCN(Cc2nc(-c3ccccc3)cs2)CC1
958 | CCc1ccccc1NC(=O)N1CC=C(c2cn(C(C)C)c3ncccc23)CC1
926 | COc1ccc(-c2noc(COC(=O)C3=CN(C)S(=O)(=O)N=C3C)n2)cc1
671 | CCc1cccc(C)c1NC(=O)C1CCN(S(C)(=O)=O)c2cc(C)ccc2O1 (stereo not drawn)
734 | CCN(Cc1ccccc1)C(=O)c1ncn2c1C(=O)N(CC)C(C)(C(=O)NC1CCCC1)C2 (stereo not drawn)
1010 | COc1ccc(Cl)cc1NC(=O)c1cnc2c(c1)c(=O)n(C)c(=O)n2-c1ccccc1
698 | Cc1c(N2CCN(C(=O)c3cccc(F)c3)CC2)c(=O)n(C)c(=O)n1C
814 | Cc1nnc2c(=O)n(CC(=O)N3CCC(Cc4ccccc4)CC3)c3cccnc3n12
577 | CCOc1ccc2nc(C(=O)NCCN3CCc4ccccc4C3)cn2n1
938 | COc1cc(-c2noc(Cn3cnc4c(cnn4-c4ccc(F)cc4)c3=O)n2)cc(OC)c1OC
601 | COCCNc1c(-c2ccccc2)nc2sc(C(=O)N3CCN(C)CC3)c(C)n12
786 | Cn1c(=O)c(SCC(=O)NCc2ccccc2Cl)nc2cccnc21

RP-LC retention time [s] | Compound
579 | CC(=O)N1CCN(c2ccnc3c2c(=O)n(CC(=O)Nc2cc(C)on2)c(=O)n3C)CC1
592 | O=C(Cn1c(-c2ccc(F)cc2)nc2ccccc21)N1CCOCC1
1070 | CCCCN(CC)C(=O)Cn1c(=O)c2cnc(-c3ccccc3)nc2n(C)c1=O
846 | CCC(CC)C(=O)Nc1nc(-c2ccc3c(c2)NC(=O)CO3)cs1
587 | O=C(CN1C(=O)CN(C(=O)Nc2ccccc2)c2ccccc21)NCc1ccccn1
665 | CC(C)(C)CC(=O)Nc1cnc(-c2cccnc2)nc1
829 | CCn1ncc(NC(=O)c2ccccc2OC)c(N2CCOCC2)c1=O
649 | CS(=O)(=O)c1ccc2nc(NC(=O)C3COCC(=O)N3Cc3ccccc3)sc2c1 (stereo not drawn)
980 | Cc1sc(NC(=O)Cn2c(=O)sc3ccccc32)nc1-c1ccccc1
1060 | CCOC(=O)C1CCN(C(=O)c2ccc(-c3nc4ccccc4n(CC(C)C)c3=O)cc2)CC1
826 | CCCCNC(=O)c1c(C)c2c(=O)n(CC(=O)Nc3ccc(Br)cc3)ncn2c1C
687 | CCCn1cnc2cc(-c3noc(CNC(=O)c4ccc(C)cc4)n3)ccc21
1030 | COc1ccc(-c2ncc3c(n2)CCN(C(=O)c2ccc(C)c(C)c2)C3)cc1
695 | CCN(CC)c1ncc2c(n1)CCC(C(=O)NCc1cccc(OC)c1)C2 (stereo not drawn)
566 | O=C(Cc1cc(-c2ccccc2)on1)NCCN1CCOCC1
618 | NC(=O)C1CCN(Cc2nc(Cn3ccn4nc(-c5ccccc5)cc4c3=O)no2)CC1
641 | Cc1ccc(NC(=O)NCCn2c(-c3ccncc3)nc3cccnc32)c(C)c1
1060 | CCc1nc2cc(-c3noc(COc4ccccc4)n3)ccc2o1

Second part, the compound before the results:

Compound | RP-LC retention time [s]
COc1cc(Cl)ccc1-c1nc(-c2cccc(-c3ccnn3C)c2)no1 | 1190
CCc1cc(=O)n(CC(=O)Nc2ccc(C(C)C)cc2)c(N2CCOCC2)n1 | 895
CN1CCN(C(=O)C2CC(=O)N(c3ccc4c(c3)CCN4C(=O)C3CC3)C2)CC1 (stereo not drawn) | 570
O=C(CN1C(=O)COc2ccc(C(=O)N3CCc4ccccc43)cc21)N1CCCC1 | 760
COc1ccc(C)cc1NC(=O)NC1CCN(c2ccc(F)c(C)c2)C1=O (stereo not drawn) | 914
Cc1nnc(N2CCCC(C(=O)N3CCN(c4ccccn4)CC3)C2)c2nn(-c3ccccc3)c(C)c12 (stereo not drawn) | 584
CC(=O)N1CCc2sc(C(=O)N3CCN(c4ccccc4F)CC3)cc2C1 | 784
Cc1nn(Cc2ccc(C(=O)NCC3CC3)cc2)c(C)c1S(=O)(=O)N1CCC(C)CC1 | 888
COC(=O)c1cncc(C)c1 | 662
Cc1ccc(C(C)C)c(OCC(=O)N(Cc2ccc(C)o2)C2CCS(=O)(=O)C2)c1 (stereo not drawn) | 1110
Cc1cc(C)cc(C(=O)NC2CCN(c3cc(-c4ccc(Cl)cc4)[nH]n3)C2)c1 (stereo not drawn) | 883
COc1cc(NC(=O)NCCc2nc3cccnc3n2C2CCCCC2)cc(OC)c1OC | 693
Cc1ccc(NC(=O)Cn2nc(C)cc2C(=O)Nc2ccc3c(c2)OCCO3)cc1 | 834
COc1ccc(S(=O)(=O)N2CCC(OCCOc3ccccc3)CC2)cc1 | 1070
O=C1COc2ccc(S(=O)(=O)N3CCC(C(=O)Nc4cccc(Br)c4)CC3)cc2N1 | 859
COc1ccc(-c2noc(C3CCCN3C(=O)c3ccc4c(c3)OCO4)n2)cc1OC (stereo not drawn) | 836
CCCc1ccc(S(=O)(=O)N2CCC3(CC2)NCCN=C3NCc2ccc(C)cc2)cc1 | 846
Cn1c(=O)n(C)c2cc(CNC(C)(C)CC(C)(C)C)ccc21 | 624
CC(C)n1nnc2cc(C(=O)N(C)C)ccc21 | 648
O=C(c1ccc2ccccc2n1)N1CCN(c2cc(-c3cccnc3)[nH]n2)CC1 | 602
COc1ccc2nc(CN3CCN(S(=O)(=O)c4cccs4)CC3)[nH]c2c1 | 584
CC(C)n1c(SCC(=O)N2CCCC2)nnc1-c1ccc2c(c1)OCCCO2 | 671
Cc1ccc2ncn(C3CCN(C(=O)Nc4ccc(C)c(Cl)c4)CC3)c(=O)c2c1 | 888
Cn1nc(N2CCC(NC(=O)c3ccsc3)C2)ccc1=O (stereo not drawn) | 640
Cc1c(Cl)cccc1NC(=O)C1CCN(c2cc(-n3ccnc3C)ncn2)CC1 | 581
O=C(CSc1nnc(-c2cccc(Cl)c2)o1)Nc1ccc(C(F)(F)F)cc1 | 1050

Compound | RP-LC retention time [s]
O=C(NCc1ccco1)C1CCN(c2cncnc2N2CCCCC2)CC1 | 646
Cn1nc(C(=O)N2CCCC(C(=O)NC3CC3)C2)c2c1CCN(C(=O)c1ccccc1Cl)C2 (stereo not drawn) | 648
O=C(NCC(O)c1ccc(C(F)(F)F)cc1)c1ccco1 (stereo not drawn) | 711
O=C(CCCN1CCN(Cc2ccc(F)cc2)C(=O)C1=O)Nc1ccc(Br)cc1F | 814
O=C(NCC1CCCO1)c1ccc2c(c1)NC(=O)C1CCC(=O)N21 (stereo not drawn) | 598
CN(C)S(=O)(=O)c1ccc2c(c1)N(CC(=O)NCCN1CCCC1)C(=O)C1CCCCN21 (stereo not drawn) | 627
Cc1cc(F)ccc1NC(=O)c1n[nH]nc1Nc1ccc(F)cc1 | 923
CCCN(CC1CCOC1)C(=O)Nc1ccc(Cl)cc1F (stereo not drawn) | 853
CC(NC(=O)CCc1ccc2[nH]ccc2c1)c1ccccc1 (stereo not drawn) | 812
CCOC(=O)c1c(CN2CCOCC2)n(C)c2cc(Br)c(OC(C)=O)cc12 | 704
COc1cccc(NC(=O)C2CCN(C(=O)C3Sc4ccccc4NC3=O)CC2)c1 (stereo not drawn) | 752
Fc1cc(CN2CCC(Cc3nnc(C4CCOCC4)o3)C2)ccc1Cl (stereo not drawn) | 603
CC(=O)N[C@@H]1CCN(Cc2ccccc2C(F)(F)F)C[C@@H]1CO | 574
N#Cc1ccc(S(=O)(=O)N2CC(c3nc(CCOCC4CCOCC4)no3)C2)cc1 | 813
COC(=O)c1cccc(N2C=C(C#N)S(=O)(=O)c3ccc(F)cc32)c1 | 860
Cc1ccc(C)c(S(=O)(=O)N2CCC3(CC2)NCCN=C3NCc2cc(F)cc(F)c2)c1 | 774
COC(=O)c1ccc(NC(=O)CN2CCc3[nH]c4c(C)c(Cl)ccc4c(=O)c3C2)cc1 | 569
CCCN(C)CC1(O)CCC2(CCN(Cc3ccc(F)cc3)CC2)CC1 | 547
CCOC(=O)c1c(CN2CCOCC2)n(C)c2ccc(O)cc12 | 578
Cn1cnnc1SCCNC(=O)CNC(=O)c1ccc(=O)[nH]c1 | 494
CCN1CCN(CCNC(=O)C2CCN(c3nccnc3Sc3ccc(C)cc3)CC2)CC1 | 639
Cc1ccc(Nc2c(-c3nc(C)no3)cnc3nc(C)ccc23)cc1 | 750
O=C1CCC2(CNC(=O)c3n[nH]c(=O)c4ccccc34)CCCC=C2N1 (stereo not drawn) | 634
CC(=O)N1c2ccc(S(=O)(=O)N3CCCC3)cc2CC1C(=O)NCCN(C)C1CCCCC1 (stereo not drawn) | 577
CCC1Oc2ccc(S(=O)(=O)N3CCC(C(=O)NCc4ccccc4C)CC3)cc2NC1=O (stereo not drawn) | 872
CC(C)OCCCNC(=O)c1nnc(-c2ccc(S(=O)(=O)N3CCCCC3)cc2)o1 | 917
